pIC50: −log10 of the molar value. “And” between values parts separate entries of the source, which are not always exact repeats. Equal values may be shown once. “Also recorded” adds a separate entry of the source. Read-outs that look alike come from different tables or passages of the source.
What was measured:
TLR9 [1] = assay: TLR9 response: ODN 2395 induced IL-6 production in PBMCs
Method: (§3) To evaluate TLR3 responses, frozen PBMCs were thawed in culture medium. A total of 2x10^5 PBMCs were seeded per well in a 96-well tissue culture plate for the assay. One hour following incubation with compounds at 37°C, 5% CO2, the PBMCs were treated with a PBMC donor-specific EC80 concentration of the high molecular weight Poly I:C (TLR3 ligand, Invivogen, San Diego, CA) or appropriate controls, and were allowed to incubate at 37°C, 5% CO2 for 24 hours. Twenty four hours following incubation, 120μl of the cell culture supernatant was removed from the cell culture plates and frozen at -80°C until further analysis. To evaluate TLR7 and TLR9 responses, PBMCs were thawed in culture medium, reconstituted to a concentration of 3x10^6 cells/ml, dispensed into ultra-low attachment flasks and incubated at 37°C, 5% CO2 for 24h with continuous rocking. The PBMCs were harvested from the flask, seeded at a density of 2x10^5 PBMCs/well in compound-dispensed assay plates and allowed to incubate at 37°C, 5% CO2 for 24 hours. One hour following incubation with compounds at 37°C, 5% CO2, the PBMCs were treated with a PBMC donor-specific EC80 concentration of high molecular weight CL264 (TL7 ligand, Invivogen, San Diego, CA) or ODN 2395 (TLR9 ligand, Invivogen, San Diego, CA), or appropriate controls, and were allowed to incubate at 37°C, 5% CO2 for 24 hours. Twenty four hours following incubation, 120μl of the cell culture supernatant was removed from the cell culture plates and frozen at -80°C until further analysis. The cell culture supernatants were analyzed for IP-10 or IL-6 levels using MSD kits (Meso Scale Discovery, Rockville, MD) according to manufacturer’s protocols.
(§4) The stimulant was the chemical agent that was used to elicit the response in the assay (i.e., TLR ligands in the TLR assay). We used EC80 stimulation conditions for evaluating the impact of compounds in assays with titrable stimulants. To account for donor-to-donor variability in PBMCs, we used donors that whose EC80 values were within a 3-fold range determined by dose-response experiments with the stimulants.

TLR3 [2] = assay: TLR3 response: Poly I:C induced IP-10 production in PBMCs
Method: as §3, §4

TLR7 [3] = assay: TLR7 response: TLR7 agonist induced IL-6 production in PBMCs; settings: for TLR7 Max inhibition: sheet 'TLR7', % maximal inhibition = 'top' of curve fit
Method: as §3, §4

[4] = tested on: NK cell mediated killing of K562 cells; assay: NK cell killing function (NK Test, PBMC effectors, K562 target cells)
Method: (§5) A commercially available kit was used to asses NK cell killing (NK Test, Glycotope Biotechnology). Human PBMCs (effector cells) resuspended in culture medium were plated in a round bottom, sterile poly propylene 96 well plate (Corning #3359) and incubated with compounds (final DMSO concentration 0.1%) for 1 hour. Membrane labeled GFP positive K562 cells (target cells) were then added to the effector cells at a 1:50 target–effector ratio. Cells were centrifuged for 3 minutes at 120xg to ensure cell-cell contact and incubated at 37°C, 5% CO2 for 2 hours. Cells were then resuspended in propidium iodide staining solution and incubated at room temperature for 5 minutes. A total of 10,000 target cell events were acquired on a BD Fortessa flow cytometer, and the data was analyzed by FACSDiva or Flowjo.
(§6) We used EC80 stimulation conditions for evaluating the impact of compounds in assays with titrable stimulants. To account for donor-to-donor variability in PBMCs, we used donors that whose EC80 values were within a 3-fold range determined by dose-response experiments with the stimulants. For the NK cell killing assay, we used the conditions and donors that gave the best assay window (i.e., 1:50 target:effector ratio). For the T cell stimulation assay, we performed a dose-titration of αCD3 and αCD28 to determine the stimulation conditions used in this assay. […] Every assay plate contained samples that would elicit a minimal response (no stimulant), maximal response (stimulant with no compounds), compound dose-response (stimulant with compounds) and positive control (stimulant with compound that is known to inhibit the assay). We evaluated the impact of small molecule inhibitors in 8–10 different doses for every PBMC sample in every assay. The values obtained from multiple PBMC donors were compiled together to calculate the inhibitory concentrations of the compounds in a given assay.
(§7) Each assay contained samples that would elicit a minimal and a maximal response, which defined the assay window.

[5] = tested on: ROS production by neutrophils in human whole blood; assay: Phagocyte oxidative burst (Phagoburst), neutrophil ROS production in whole blood; format: cell-based; settings: for IC50: 10 min, sheet 'IC50 values', whole blood, corrected for plasma protein binding, unit inferred, Assay control = DPI, read-out: PB_Neut IC50
Method: (§1) Phagocytic oxidative burst was assessed in whole blood samples using the Phagoburst kit (Orpegen Biopharma, #10–0200). The assay was modified to accommodate a 96 well format. Briefly, 50 μL human whole blood was mixed well with compounds (0.1% final DMSO concentration) and incubated for 30 minutes at 37°C, 5% CO2. Then, samples were incubated on ice for 5 minutes, followed by the addition of 10uL of reagent B (opsonized bacteria). Samples were then mixed well and incubated for 10 minutes in a 37°C water bath. Next, 10μL of reagent E (substrate solution) was added to the samples, mixed well and incubated for an additional 10 minutes in the 37°C water bath. Then, 150uL of reagent F (lysis solution) was added to all wells, mixed well and incubated for 20 minutes at room temperature. Samples were washed twice with reagent A and incubated with 90μL of reagent G (DNA staining solution) for 10 minutes, on ice and protected from light. The samples were analyzed in a BD Fortessa flow cytometer. Cells were gated based on Forward and Side scatter properties and high content DNA. A total of 10,000 cell events (high content DNA) were collected, analyzed using FACSDiva or Flowjo and the oxidative burst was measured by the geometric mean fluorescence intensity (GMFI) of the ROS detection dye in the assay (Figure C in S2 Fig).
(§2) Compounds were spiked at 1 μM in plasma. […] Following centrifugation, samples were analyzed using LC-MS/MS. […] A similar methodology was followed for media binding.

[6] = tested on: ROS production by monocytes in human whole blood; assay: Phagocyte oxidative burst (Phagoburst), monocyte ROS production in whole blood; format: cell-based
Method: as §1, §2

[7] = tested on: IL-2 production by T cells in human PBMCs; assay: T cell activation: IL-2 production in anti-CD3 + anti-CD28 stimulated PBMCs (MSD, 24 h); settings: for impact on IL-2 production: PBMC, anti-CD3 + anti-CD28, 24 h; for Tcell_IL2 Max inhibition: sheet 'Tcell_IL2', % maximal inhibition = 'top' of curve fit
Method: (§8) Peripheral blood mononuclear cells in culture media were pre-treated with compounds (0.1% final DMSO concentration) for 45 minutes at 37°C, 5% CO2 and then transferred into anti-CD3 (1 μg/mL, OKT3, eBioscience, San Diego, CA) coated plate containing soluble anti-CD28 (1 μg/mL, Fitzgerald, Acton, MA). Twenty four hours after stimulation, an aliquot of cell culture supernatant was collected and evaluated for IL-2 production (MesoScale Discovery, Rockville, MD) according to manufacturer’s instructions. The remaining culture was allowed to continue incubation for an additional 48 hours. To evaluate proliferation, Click-iT EdU Alexa Flour 647 Assay Kit (Invitrogen, Carlsbad, CA) was used according to manufacturer’s instructions, and proliferation was evaluated at 72 hours following stimulation. The cells were stained with flourochrome conjugated antibodies against CD3, CD4 and CD8 and analyzed in a BD Fortessa flow cytometer by acquiring 8–10,000 events. The data was analyzed by FACSDiva or FlowJo and reported as the percentage of EdU^+CD3^+CD4^+ and EdU^+CD3^+CD8^+ lymphocytes (Figure A in S2 Fig).
(§9) The stimulant was the chemical agent that was used to elicit the response in the assay (i.e., TLR ligands in the TLR assay). We used EC80 stimulation conditions for evaluating the impact of compounds in assays with titrable stimulants. To account for donor-to-donor variability in PBMCs, we used donors that whose EC80 values were within a 3-fold range determined by dose-response experiments with the stimulants. For the NK cell killing assay, we used the conditions and donors that gave the best assay window (i.e., 1:50 target:effector ratio). For the T cell stimulation assay, we performed a dose-titration of αCD3 and αCD28 to determine the stimulation conditions used in this assay. For the phagocyte oxidative burst assay, since we could not screen human whole blood for selecting best responders, we followed the manufacturer’s protocol on 8–10 different human whole blood samples. Every assay plate contained samples that would elicit a minimal response (no stimulant), maximal response (stimulant with no compounds), compound dose-response (stimulant with compounds) and positive control (stimulant with compound that is known to inhibit the assay). We evaluated the impact of small molecule inhibitors in 8–10 different doses for every PBMC sample in every assay. The values obtained from multiple PBMC donors were compiled together to calculate the inhibitory concentrations of the compounds in a given assay.
as §7

[8] = tested on: CD4+ T cell proliferation in human PBMCs; assay: CD4+ T cell proliferation in anti-CD3 + anti-CD28 stimulated PBMCs (EdU flow cytometry, 72 h); settings: for impact on CD4+ T cell proliferation: PBMC, anti-CD3 + anti-CD28, 72 h
Method: as §8, §9, §7

[9] = tested on: CD8+ T cell proliferation in human PBMCs; assay: CD8+ T cell proliferation in anti-CD3 + anti-CD28 stimulated PBMCs (EdU flow cytometry, 72 h); settings: for impact on CD8+ T cell proliferation: PBMC, anti-CD3 + anti-CD28, 72 h
Method: as §8, §9, §7

[10] = tested on: NK cell mediated killing of K562 cells
Method: as §5, §6, §7

TLR3 [11] = tested on: TLR3
Method: as §3, §4

TLR7 [12] = tested on: TLR7
Method: as §3, §4

TLR9 [13] = tested on: TLR9
Method: as §3, §4

[14] = tested on: gene expression of stimulated human PBMCs; assay: Nanostring mRNA profiling in the T cell stimulation assay (anti-CD3 + anti-CD28 PBMCs); format: cell-based; settings: for impact on gene expression profile of stimulated PBMCs: 24 h after anti-CD3 and anti-CD28 stimulation, n = 3 donors
Method: Cell pellets from experiments were lysed in RLT buffer and prepared according to standard protocol recommended by NanoString Technologies. Briefly, lysates were co-incubated with capture and reporter probes (NanoString Technologies Immunology v2 Codeset) in a thermal cycler set at 65°C for 24 hours. Samples were processed and analyzed with a Generation 2 nCounter. Counts from samples were normalized using housekeeping genes scored on the Nanostring platform. Samples with counts less than 20 were excluded from further analysis. The Matlab function ttest2 was used to determine p-values for log2 fold changes, and the function agglomerative was used to perform clustering.

[15] = tested on: IL-2 production by T cells in human PBMCs
Method: as §8, §9, §7

[16] = tested on: CD4+ T cell proliferation in human PBMCs
Method: as §8, §9, §7

[17] = tested on: CD8+ T cell proliferation in human PBMCs
Method: as §8, §9, §7

[18] = human whole blood, opsonized bacteria

SMILES: Cc1ccc(S(=O)(=O)/C=C/C#N)cc1 [BAY-11, BAY 11–7082]
- effect on TLR9 response, ODN 2395 induced IL-6 (TLR9 [1]): fully inhibited this response
- effect on TLR3 response, Poly (I:C) induced IP-10 (TLR3 [2]): fully inhibited the response
- effect on TLR7 response, IL-6 production (TLR7 [3]): fully inhibited this response

SMILES: C/C1=C/C(=O)O[C@@H]2C[C@@H](CC[C@H](C)/C=C\C=C\CC1)O[C@@](O)([C@@H]1CSC(=O)N1)C2 [Latrunculin A, latrunculin A]
- effect on NK cell killing activity [4]: completely inhibited

SMILES: CO[C@H]1C[C@@H]2CC[C@@H](C)[C@@](O)(O2)C(=O)C(=O)N2CCCC[C@H]2C(=O)O[C@H]([C@H](C)C[C@@H]2CC[C@@H](O)[C@H](OC)C2)CC(=O)[C@H](C)/C=C(\C)[C@@H](O)[C@@H](OC)C(=O)[C@H](C)C[C@H](C)/C=C/C=C/C=C/1C [Rapamycin, rapamycin]
- IC50 ([5]; Homo sapiens, Neutrophil, opsonized bacteria): 601 nM
- reduction / maximal inhibition of neutrophil ROS production [5, 18]: 20–40%
- PB_Neut Max inhibition ([5]; sheet 'PB_Neut', % maximal inhibition = 'top' of curve fit): 36.53
- IC50 ([6]; Homo sapiens, Monocyte, 10 min, sheet 'IC50 values', whole blood, opsonized bacteria, 10 min, corrected for plasma protein binding, unit inferred, Assay control = DPI, read-out: PB_Mono IC50): 128 nM
- reduction / maximal inhibition of monocyte ROS production [6, 18]: 20–40%
- PB_Mono Max inhibition ([6]; sheet 'PB_Mono', % maximal inhibition = 'top' of curve fit): 13.41
- TLR7 Max inhibition (TLR7 [3]): 72.11
- impact on IL-2 production [7]: did not have an impact
- impact on CD4+ T cell proliferation [8]: did not have an impact
- impact on CD8+ T cell proliferation [9]: did not have an impact

SMILES: CC(C)(C)c1nc2c3cc[nH]c(=O)c3c3cc(F)ccc3c2[nH]1 [JAK inhibitor 1]
- IC50 ([5]; opsonized bacteria): 354 nM
- pIC50 [10]: 4.18
- pIC50 (TLR3 [11]): 7.21
- pIC50 (TLR7 [12]): 6.26
- pIC50 (TLR9 [13]): 7.59

SMILES: CN(Cc1cnc2nc(N)nc(N)c2n1)c1ccc(C(=O)N[C@@H](CCC(=O)O)C(=O)O)cc1 [Methotrexate]
- impact on gene expression profile of stimulated PBMCs ([14]; 1μM): minimal impact on restoring the gene expression profile
- pIC50 [15]: 5.30
- pIC50 [16]: 8.23
- pIC50 [17]: 7.98
- impact on IL-2 production [7]: marginal but variable impact
- Tcell_IL2 Max inhibition [7]: 27.8
- maximal inhibition of CD4+ T cell proliferation [8]: around 30%
- maximal inhibition of CD8+ T cell proliferation [9]: around 30%

SMILES: COc1c(C)c2c(c(O)c1C/C=C(\C)CCC(=O)OCCN1CCOCC1)C(=O)OC2 [Mycophenolate Mofetil, mycophenolate mofetil]
- IL-2 mRNA expression ([14]; 1μM, 24 h): partially reduced
- impact on gene expression profile of stimulated PBMCs ([14]; 1μM): minimal impact on restoring the gene expression profile
- pIC50 (TLR9 [13]): 5.66 and 5.51
- impact on IL-2 production [7]: inhibited
- Tcell_IL2 Max inhibition [7]: 49.64
- impact on CD4+ T cell proliferation [8]: inhibited
- impact on CD8+ T cell proliferation [9]: inhibited

SMILES: C[C@]12C=CC(=O)C=C1CC[C@@H]1[C@@H]2[C@@H](O)C[C@@]2(C)[C@H]1CC[C@]2(O)C(=O)CO [Prednisolone, prednisolone]
- IL-2 mRNA expression ([14]; 1μM, 24 h): partially reduced
- IL-4 mRNA expression ([14]; 1μM, 24 h): reduced
- IL-13 mRNA expression ([14]; 1μM, 24 h): reduced
- impact on gene expression profile of stimulated PBMCs ([14]; 1μM): modified the gene expression profile of stimulated samples similar to that of unstimulated cells
- IL-2 mRNA expression, time and dose course ([14]; three concentrations, 3h, 6h and 24h following stimulation): impacted in a time- and dose-dependent manner
- pIC50 [15]: 7.12
- pIC50 [10]: 4.67
- pIC50 (TLR3 [11]): 6.04 and 6.00
- pIC50 (TLR7 [12]): 7.50 and 7.47
- pIC50 (TLR9 [13]): 7.48 and 7.45
- effect on TLR9 response, ODN 2395 induced IL-6 (TLR9 [1]): dose-dependent inhibition; also recorded: potent in inhibiting TLR9 responses
- TLR7 Max inhibition (TLR7 [3]): 93.77
- impact on IL-2 production [7]: inhibited only IL-2 production
- Tcell_IL2 Max inhibition [7]: 71.87
- impact on CD4+ T cell proliferation [8]: did not have an impact
- impact on CD8+ T cell proliferation [9]: did not have an impact

SMILES: Cc1oncc1C(=O)Nc1ccc(C(F)(F)F)cc1 [Leflunomide, leflunomide]
- pIC50 [10]: 4.32
- pIC50 (TLR9 [13]): 7.60 and 7.59

SMILES: c1ccc([I+]c2ccccc2)cc1 [diphenyliodonium chloride]
- effect on neutrophil ROS production [5, 18]: completely inhibit
- effect on monocyte ROS production [6, 18]: completely inhibit
